Assay [1] deals with SARS-CoV-2 Spike protein (Severe acute respiratory syndrome coronavirus 2, UniProt P0DTC2). Kind of assay: Ternary binding of SARS-CoV-2 Spike protein (293T cells expressing Spike-GFP, IgG-AF647, flow cytometry). The class given is cell-based. The note with it: 293T cells expressing Spike-GFP; IgG-AF647 10 μg/ml; repeat values/batches listed separately; read-out: SARS-CoV-2 Ternary binding EC50.

For assay [2], the target named is T1, SARS-CoV-2 Spike A (wild-type) (Severe acute respiratory syndrome coronavirus 2, UniProt P0DTC2).
T1 construct: purchased Meso Scale Diagnostics, LLC V-PLEX SARS-CoV-2 Panel 13 (ACE2) Kit / Panel 23 (ACE2) Kit
Put plainly: MSD ACE2 competition assay (inhibition of Spike binding with ACE2, ECL), A (wild-type). The note with it: IC50 Wild Type, Wild Type Spike.

Assay [3] deals with Spike RBD coated magnetic beads / RAW 264.7 macrophages. Put plainly: Antibody-dependent cellular phagocytosis (ADCP), RAW 264.7 macrophages and Spike RBD coated magnetic beads, flow cytometry. The class given is cell-based. The note with it: 37° C., 2 hours, read-out: SARS-COV-2 ADCP EC50. As to the method:
The ability of the compounds to mediate antibody-dependent cellular phagocytosis (ADCP) was assessed using RAW 264.7 macrophages and Spike RBD coated magnetic beads (https://www.acrobiosystems.com/P3194-SARS-CoV-2-Spike-RBD-coupled-Magnetic-Beads.html). Spike RBD coated magnetic beads (3 ul per well) were added to each well of a round bottom 96-well plates. RAW264.7 cells (50,000 cells per well) were added to the beads. Next, the compounds were administered to predetermined final concentrations. The cell-bead mixtures were incubated at 37° C. for 2 hours. The mixtures were then analyzed by flow cytometry.
In general terms: A flow cytometer gives signals particle by particle.

Assay [4] has as its system live SARS-CoV-2 Virus (wildtype). Kind of assay: Neutralization of live SARS-CoV-2 virus, wildtype (Vero E6 cells, nucleoprotein ELISA). It counts as cell-based. On the technique in general: In an ELISA, binding on a coated surface is turned into a signal by an enzyme label.
Assay [5] has as its target native human IgG1. Kind of assay: Ligand binding to native human IgG1 by Bio-Layer Interferometry (BLI). The conditions noted are these: read-out: Octet Native IgG1 Binding KD. As to the method:
The binding of exemplary compounds to native human IgG1 was measured by Bio-Layer Interferometry (BLI) using the ForteBio Octet® 96e platform (Fremont, CA). The binding assay was performed using the Protein L (ProL) Dip and Read Biosensors (ForteBio 18-5085) in a 96-well black flat bottom assay plate (Greiner Bio-One 655209; Monroe, NC) with the following steps: (1) 60 seconds of baseline; (2) 600 seconds of loading with 50 μg/ml of Native Human IgG1 (Abcam ab184886; Cambridge, UK); (3) 60 seconds of baseline; (4) 180 seconds of association with a dilution series of ligand in Assay Buffer (PBS (Gibco 10010; Grand Island, New York), 0.1% (w/v) BSA (American Bio AB01088-00100; Canton, MA), 0.05% (v/v) Tween 20 (Fisher BioReagents™ BP337-500; Pittsburgh, PA), pH 7.4), consisting of seven concentrations. The eighth tip in the column was run in Assay Buffer to serve as a reference sensor, the signal of which was subtracted from the sample sensors. (5) 180 seconds of dissociation in Assay Buffer.
The data was analyzed with the Octet® Data Analysis HT software. The processed data was globally fit to a 1:1 binding model for determination of the equilibrium dissociation constant (KD) and is shown in Table 7.
Background: In BLI a coated tip is dipped into the sample, and binding shifts an interference pattern.

[6] abbreviates: live virus neutralization, isolate Seattle WA (IITRI), Vero E6.

Our source for the EC50, IC50 and Kd values is patent US20260306644A1, “ANTIBODY RECRUITING MOLECULES FOR THE TREATMENT OF CORONAVIRUS DISEASE-19” (priority 2023, published 2026).

Values joined by “and” are separate entries in the source; they are usually repeats but may differ in a detail not shown here. Identical values can stand only once. Like-named read-outs stand apart in the source and are kept apart here. Positions of bridges follow the written chain, without caps; N, C: chain ends.

Regarding “Ac-DCAWHLGELVWCTDKEWILQKIYEIMRLLDELGHAEASMRVSDLIYEFMKKGDERLLEEAERLLEEVER (disulfide 2-12) [Compound 120]”, the EC50 (in general, the concentration needed to bring the measured effect to its halfway point) was 330 pM and 310 pM in assay [1]; 1900 pM and 1800 pM in assay [3]; 1 pM in assay [4] (setting [6]). The IC50 (in general, the concentration that gives 50% inhibition) in assay [2] is < 10000 pM and 1570 pM.

With `CC[C@H](C)[C@H](NC(=O)[C@H](CC(C)C)NC(=O)[C@H](CC(=O)O)NC(=O)[C@H](CO)NC(=O)[C@@H](NC(=O)[C@H](CCCNC(=N)N)NC(=O)[C@H](CCSC)NC(=O)[C@H](CO)NC(=O)[C@H](C)NC(=O)[C@H](CCC(=O)O)NC(=O)[C@H](C)NC(=O)[C@H](Cc1c[nH]cn1)NC(=O)CNC(=O)[C@H](CC(C)C)NC(=O)[C@H](CCC(=O)O)NC(=O)[C@H](CC(=O)O)NC(=O)[C@H](CC(C)C)NC(=O)[C@H](CC(C)C)NC(=O)[C@H](CCCNC(=N)N)NC(=O)[C@H](CCSC)NC(=O)[C@@H](NC(=O)[C@H](CCC(=O)O)NC(=O)[C@H](Cc1ccc(O)cc1)NC(=O)[C@@H](NC(=O)[C@H](CCCCN)NC(=O)[C@H](CCC(N)=O)NC(=O)[C@H](CC(C)C)NC(=O)[C@@H](NC(=O)[C@H](Cc1c[nH]c2ccccc12)NC(=O)[C@H](CCC(=O)O)NC(=O)[C@H](CCCCN)NC(=O)[C@H](CC(=O)O)NC(=O)CCOCCOCCOCCOCCOCCOCCOCCOCCNC(=O)CCOCCOCCOCCOCCOCCOCCOCCOCCC(=O)N[C@@H](CC(=O)O)C(=O)N[C@H]1CSSC[C@@H](C(=O)N[C@H](C(N)=O)[C@@H](C)O)NC(=O)[C@H](Cc2c[nH]c3ccccc23)NC(=O)[C@H](C(C)C)NC(=O)[C@H](CC(C)C)NC(=O)[C@H](CCC(=O)O)NC(=O)CNC(=O)[C@H](CC(C)C)NC(=O)[C@H](Cc2c[nH]cn2)NC(=O)[C@H](Cc2c[nH]c3ccccc23)NC(=O)[C@H](C)NC1=O)[C@@H](C)CC)[C@@H](C)CC)[C@@H](C)CC)C(C)C)C(=O)N[C@@H](Cc1ccc(O)cc1)C(=O)N[C@@H](CCC(=O)O)C(=O)N[C@@H](Cc1ccccc1)C(=O)N[C@@H](CCSC)C(=O)N[C@@H](CCCCN)C(=O)N[C@@H](CCCCN)C(=O)NCC(=O)N[C@@H](CC(=O)O)C(=O)N[C@@H](CCC(=O)O)C(=O)N[C@@H](CCCNC(=N)N)C(=O)N[C@@H](CC(C)C)C(=O)N[C@@H](CC(C)C)C(=O)N[C@@H](CCC(=O)O)C(=O)N[C@@H](CCC(=O)O)C(=O)N[C@@H](C)C(=O)N[C@@H](CCC(=O)O)C(=O)N[C@@H](CCCNC(=N)N)C(=O)N[C@@H](CC(C)C)C(=O)N[C@@H](CC(C)C)C(=O)N[C@@H](CCC(=O)O)C(=O)N[C@@H](CCC(=O)O)C(=O)N[C@H](C(=O)N[C@@H](CCC(=O)O)C(=O)N[C@@H](CCCNC(=N)N)C(N)=O)C(C)C` [Compound 128], the EC50 is 45 pM and 52 pM in assay [3]; 42 pM in assay [4] (read-out: Seattle WA (IITRI) EC50).

“Ac-DKEWILQKIYEIMRLLDELGHAEASMRVSDLIYEFMKKGDERLLEEAERLLEEVERDCAWHLGELVWCT (disulfide 58-68) [Compound 110]”: the EC50 in assay [1] is 140 pM and 130 pM; in assay [3], 1500 pM and 1200 pM; in assay [4] (setting [6]), 5.8 pM. In assay [2], this molecule displayed an IC50 of less than 10000 pM.

For “Ac-DKEWILQKIYEIMRLLDELGHAEASMRVSDLIYEFMKKGPASPASPASPASDCAWHLGELVWCT (disulfide 53-63) [Compound 167]”, the results for the EC50 in assay [1] and in assay [3] were 240 pM and 110 pM, respectively. In addition, in assay [5], the Kd (usually the concentration at which binding is half-saturated) is less than 1000 pM. The IC50 in assay [2] came out at 10800 pM.
